The experiment addresses T1, human sputum elastase (HSE) (Homo sapiens, UniProt P08246).
T1 construct: human sputum elastase (HSE); from tissue; host or cells: human sputum (from the enzyme's name only)
T1 sequence (P08246 30-247 limits assumed): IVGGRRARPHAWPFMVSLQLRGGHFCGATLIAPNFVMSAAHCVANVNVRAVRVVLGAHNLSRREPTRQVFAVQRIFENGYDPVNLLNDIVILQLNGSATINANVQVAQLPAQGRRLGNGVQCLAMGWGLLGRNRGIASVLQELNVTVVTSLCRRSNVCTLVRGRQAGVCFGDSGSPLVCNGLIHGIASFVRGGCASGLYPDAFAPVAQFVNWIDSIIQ
Nature of the experiment: Inhibitory effects on human sputum elastase. The class given is biochemical. The note with it: pre-incubated at 37°C for 20 minutes; substrate MeO-Suc-Ala-Ala-Pro-Val-pNA, 37°C for 5 minutes; HEPES buffer (pH 8.0); pNA measured at 405 nm. How it is done:
(1) Inhibitory effects on human sputum elastase
A mixture of 0.5 ml of 0.2 mM HEPES buffer (pH 8.0), 0.2 ml of 2.5 M aqueous solution of sodium chloride, 0.1 ml of 1% polyethyleneglycol 6000, 0.13 ml of distilled water, 0.01 ml of a solution of test compound in dimethylsulfoxide (DMSO) and 0.05 ml of 0.8 U/ml human sputum elastase (HSE) was pre-incubated at 37°C, for 20 minutes. 0.01 ml of 5 mM MeO-Suc-Ala-Ala-Pro-Val-pNA in DMSO was added to the above mixture and the mixture was incubated at 37°C for 5 minutes. The reaction was terminated by 0.1 ml of 50% acetic acid and then p-nitroanilide (pNA) released was measured spectrophotometrically at 405 nm. Percent inhibition of a compound was calculated by the following equation. Inhibition (%) = [1 - {delta OD (test-blank) / delta OD (control-blank)}] × 100 [formula]

Results on one compound are retold here after patent publication EP1219608A1, “PYRIMIDINE DERIVATIVES, PROCESS FOR PREPARING THE DERIVATIVES AND DRUGS CONTAINING THE SAME AS THE ACTIVE INGREDIENT” (ONO PHARMACEUTICAL CO., LTD., priority 1999, dated 2001).

Regarding `CC(C)C(NC(=O)Cn1c(-c2ccccc2)ncc([N+](=O)[O-])c1=O)C(=O)c1nnc(C(C)(C)C)o1` (racemic) [Example 7(1), N-[(1RS)-1-(5-(t-butyl)-1,3,4-oxadiazol-2-ylcarbonyl)-2-methylpropyl]-2-[6-oxo-2-phenyl-5-nitro-1,6-dihydropyrimidin-1-yl]acetamide], the IC50 – broadly, the midpoint of a concentration-inhibition curve – was 88 nM.
